In this assay the target is T1, AsPC-1 HiBiT-KRASG12D (Homo sapiens, UniProt P01116, G12D).
T1 construct: insert the HiBiT tag onto the N-terminus of one or more of the endogenous KRAS alleles; endogenous in cells; host or cells: AsPC-1 (ATCC CRL-1682), CRISPR-Cas9 knock-in clone, one tagged allele
The experiment in a line: HiBiT degradation assay (G12D), AsPC-1 HiBiT-KRASG12D cells. The format is cell-based. The note with it: 24 hours treatment; for DC50: AsPC-1 HiBiT-KRASG12D cells, HiBiT luminescence; for Dmax: ASPC1, AsPC-1 HiBiT-KRASG12D cells, maximum degradation observed. In a few lines:
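24 h cmpd treatment, 37° C/5% CO2, AsPC-1 HiBiT-KRASG12D clone (CRISPR N-term tag). Alamar blue 1×, 4 h, fluorescence. PBS wash, Nano-Glo HiBiT lytic reagent, 45 min RT, luminescence. Triplicates.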
(In general: With HiBiT, luminescence reflects the tagged protein that the partner subunit can reach.)

Each structure is given as a SMILES string. Some results are limits rather than exact numbers.

T1 sequence (P01116 1-188 isoform P01116-2 G12D): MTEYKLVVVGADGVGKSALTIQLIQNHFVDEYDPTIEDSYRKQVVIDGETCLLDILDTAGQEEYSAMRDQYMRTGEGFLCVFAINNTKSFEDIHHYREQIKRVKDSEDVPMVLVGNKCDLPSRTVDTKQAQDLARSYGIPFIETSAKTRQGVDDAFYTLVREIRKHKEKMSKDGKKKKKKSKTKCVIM

As usually defined, the DC50 is the concentration giving 50% degradation. Lower therefore signals a more potent degrader. Turning to `CCc1cccc2cc(O)cc(-c3ncc4c(N5CC6CCC(C5)N6)nc(OCCN5CCC(COc6cc([C@@H](C(=O)N7C[C@H](O)C[C@H]7C(=O)N[C@@H](C)c7ccc(-c8ccnn8C)cc7)C(C)C)on6)CC5)nc4c3F)c12` (relative stereo) [Compound 142, (2S,4R*)-1-[(2S)-2-{3-[(1-{2-[(4-{3,8-diazabicyclo[3.2.1]octan-3-yl}-7-(8-ethyl-3-hydroxynaphthalen-1-yl)-8-fluoropyrido[4,3-d]pyrimidin-2-yl)oxy]ethyl}piperidin-4-yl)methoxy]-1,2-oxazol-5-yl}-3-methylbutanoyl]-4-hydroxy-N-[(1S)-1-[4-(1-methyl-1H-pyrazol-5-yl)phenyl]ethyl]pyrrolidine-2-carboxamide], the DC50 was > 3000 nM.
A word on the Dmax: it is the greatest extent of degradation seen. A high value points to deep degradation. In the case of `CCc1cccc2cc(O)cc(-c3ncc4c(N5CC6CCC(C5)N6)nc(OCCN5CCC(COc6cc([C@H](C(=O)N7C[C@H](O)C[C@H]7C(=O)N[C@@H](C)c7ccc(-c8ccnn8C)cc7)C(C)C)on6)CC5)nc4c3F)c12` (relative stereo) [Compound 143, (2S,4R)-1-[(2R*)-2-{3-[(1-{2-[(4-{3,8-diazabicyclo[3.2.1]octan-3-yl}-7-(8-ethyl-3-hydroxynaphthalen-1-yl)-8-fluoropyrido[4,3-d]pyrimidin-2-yl)oxy]ethyl}piperidin-4-yl)methoxy]-1,2-oxazol-5-yl}-3-methylbutanoyl]-4-hydroxy-N-[(1S)-1-[4-(1-methyl-1H-pyrazol-5-yl)phenyl]ethyl]pyrrolidine-2-carboxamide], the greatest degradation seen (Dmax) lay in the range of 80 to 100% and the DC50 is < 600 nM.
For `Cc1ncsc1-c1ccc([C@H](C)NC(=O)[C@@H]2C[C@@H](O)CN2C(=O)[C@@H](c2cc(N3CCN(C(=O)OC[C@@H]4CC[C@@]5(COc6nc(N7CC8CCC(C7)N8)c7cnc(-c8cc(O)cc(Cl)c8C(F)(F)F)c(F)c7n6)CCCN45)CC3)no2)C(C)C)cc1` (relative stereo) [Compound 257, [(3S,8R)-8-[[7-[3-chloro-5-hydroxy-2-(trifluoromethyl)phenyl]-4-(3,8-diazabicyclo[3.2.1]octan-3-yl)-8-fluoro-pyrido[4,3-d]pyrimidin-2-yl]oxymethyl]-1,2,3,5,6,7-hexahydropyrrolizin-3-yl]methyl 4-[5-[(1R)-1-[(2S,4R)-4-hydroxy-2-[[(1S)-1-[4-(4-methylthiazol-5-yl)phenyl]ethyl]carbamoyl]pyrrolidine-1-carbonyl]-2-methyl-propyl]isoxazol-3-yl]piperazine-1-carboxylate] the same measures were 80 to 100% and < 600 nM.
For `Cc1ncsc1-c1ccc([C@H](C)NC(=O)[C@@H]2C[C@@H](O)CN2C(=O)[C@@H](c2cc(N3CCN(C(=O)OC[C@@H]4CC[C@@]5(COc6nc(N7CC8CCC(C7)N8)c7cnc(-c8cc(O)cc(Cl)c8C8CC8)c(F)c7n6)CCCN45)CC3)no2)C(C)C)cc1` (relative stereo) [Compound 258, [(3S,8R)-8-[[7-(3-chloro-2-cyclopropyl-5-hydroxy-phenyl)-4-(3,8-diazabicyclo[3.2.1]octan-3-yl)-8-fluoro-pyrido[4,3-d]pyrimidin-2-yl]oxymethyl]-1,2,3,5,6,7-hexahydropyrrolizin-3-yl]methyl 4-[5-[(1R)-1-[(2S,4R)-4-hydroxy-2-[[(1S)-1-[4-(4-methylthiazol-5-yl)phenyl]ethyl]carbamoyl]pyrrolidine-1-carbonyl]-2-methyl-propyl]isoxazol-3-yl]piperazine-1-carboxylate] the same measures were 80 to 100% and < 600 nM.
Consider `Cc1ncsc1-c1ccc([C@H](C)NC(=O)[C@@H]2C[C@@H](O)CN2C(=O)[C@@H](c2cc(N3CCN(C(=O)OC[C@@H]4CC[C@@]5(COc6nc(N7CC8CCC(C7)N8)c7cnc(-c8cc(O)cc9cccc(Cl)c89)c(F)c7n6)CCCN45)CC3)no2)C(C)C)cc1` (relative stereo) [Compound 268, ((3S,7aR)-7a-(((4-((1R,5S)-3,8-diazabicyclo[3.2.1]octan-3-yl)-7-(8-chloro-3-hydroxynaphthalen-1-yl)-8-fluoropyrido[4,3-d]pyrimidin-2-yl)oxy)methyl)hexahydro-1H-pyrrolizin-3-yl)methyl 4-(5-((R)-1-((2S,4R)-4-hydroxy-2-(((S)-1-(4-(4-methylthiazol-5-yl)phenyl)ethyl)carbamoyl)pyrrolidin-1-yl)-3-methyl-1-oxobutan-2-yl)isoxazol-3-yl) piperazine-1-carboxylate], for which the Dmax fell in the range of 80 to 100% and the DC50 was < 600 nM.
Regarding `Cc1ncsc1-c1ccc([C@H](C)NC(=O)[C@@H]2C[C@@H](O)CN2C(=O)[C@@H](c2cc(N3CCN(C(=O)OC[C@@H]4CC[C@@]5(COc6nc(N7CC8CCC(C7)N8)c7cnc(-c8cccc9ccc(F)c(F)c89)c(F)c7n6)CCCN45)CC3)no2)C(C)C)cc1` (relative stereo) [Compound 269, ((3S,7aR)-7a-(((4-((1R,5S)-3,8-diazabicyclo[3.2.1]octan-3-yl)-7-(7,8-difluoronaphthalen-1-yl)-8-fluoropyrido[4,3-d]pyrimidin-2-yl)oxy)methyl)hexahydro-1H-pyrrolizin-3-yl)methyl 4-(5-((R)-1-((2S,4R)-4-hydroxy-2-(((S)-1-(4-(4-methylthiazol-5-yl)phenyl)ethyl)carbamoyl)pyrrolidin-1-yl)-3-methyl-1-oxobutan-2-yl)isoxazol-3-yl) piperazine-1-carboxylate], the Dmax lay within 60 to 80% and the DC50 is < 600 nM.
For `CCc1cccc2cc(O)cc(-c3ncc4c(N5CC6CCC(C5)N6)nc(OCCN5CCC(CN6CCN(c7cc([C@H](C(=O)N8C[C@H](O)C[C@H]8C(=O)N[C@@H](C)c8ccc(-c9scnc9C)cc8)C(C)C)on7)CC6)CC5)nc4c3F)c12` (relative stereo) [Compound 276] the same measures were 80 to 100% and < 600 nM.
For `CCc1cccc2cc(O)cc(-c3ncc4c(N5CCCCCC5)nc(OC[C@]56CCCN5[C@H](COC(=O)N5CCN(c7cc([C@H](C(=O)N8C[C@H](O)C[C@H]8C(=O)N[C@@H](C)c8ccc(-c9scnc9C)cc8)C(C)C)on7)CC5)CC6)nc4c3F)c12` (relative stereo) [Compound 278, [(3S,8R)-8-[[4-(azepan-1-yl)-7-(8-ethyl-3-hydroxy-1-naphthyl)-8-fluoro-pyrido[4,3-d]pyrimidin-2-yl]oxymethyl]-1,2,3,5,6,7-hexahydropyrrolizin-3-yl]methyl4-[5-[(1R)-1-[(2S,4R)-4-hydroxy-2-[[(1S)-1-[4-(4-methylthiazol-5-yl)phenyl]ethyl]carbamoyl]pyrrolidine-1-carbonyl]-2-methyl-propyl]isoxazol-3-yl]piperazine-1-carboxylate] the same measures were 80 to 100% and < 600 nM.
With `C#Cc1c(F)ccc2cc(O)cc(-c3ncc4c(N5CC6CCC(C5)N6)nc(OCCN5CCC(CC6CCN(c7cc([C@H](C(=O)N8C[C@H](O)C[C@H]8C(=O)N[C@@H](C)c8ccc(-c9scnc9C)cc8)C(C)C)on7)CC6)CC5)nc4c3F)c12` (relative stereo) [Compound 307, (2S,4R)-1-((R)-2-(3-(4-((1-(2-((4-((1R,5S)-3,8-diazabicyclo[3.2.1]octan-3-yl)-7-(8-ethynyl-7-fluoro-3-hydroxynaphthalen-1-yl)-8-fluoropyrido[4,3-d]pyrimidin-2-yl)oxy)ethyl)piperidin-4-yl)methyl)piperidin-1-yl)isoxazol-5-yl)-3-methylbutanoyl)-4-hydroxy-N—((S)-1-(4-(4-methylthiazol-5-yl)phenyl)ethyl)pyrrolidine-2-carboxamide], the Dmax is 80 to 100% and the DC50 was < 600 nM.
For `Cc1ncsc1-c1ccc([C@H](C)NC(=O)[C@@H]2C[C@@H](O)CN2C(=O)[C@@H](c2cc(N3CCN(C(=O)OC[C@@H]4CC[C@]5(COc6nc(N7CC8CCC(C7)N8)c7cc(Cl)c(-c8cc(O)cc9ccccc89)c(F)c7n6)CCCN45)CC3)no2)C(C)C)cc1` (relative stereo) [Compound 328, [(3S,8S)-8-[[6-chloro-4-(3,8-diazabicyclo[3.2.1]octan-3-yl)-8-fluoro-7-(3-hydroxy-1-naphthyl)quinazolin-2-yl]oxymethyl]-1,2,3,5,6,7-hexahydropyrrolizin-3-yl]methyl 4-[5-[(1R)-1-[(2S,4R)-4-hydroxy-2-[[(1S)-1-[4-(4-methylthiazol-5-yl)phenyl]ethyl]carbamoyl]pyrrolidine-1-carbonyl]-2-methyl-propyl]isoxazol-3-yl]piperazine-1-carboxylate] the same measures were 80 to 100% and < 600 nM.
For `Cc1ncsc1-c1ccc([C@H](C)NC(=O)[C@@H]2C[C@@H](O)CN2C(=O)[C@@H](c2cc(N3CCN(C(=O)OC[C@@H]4CC[C@@]5(COc6nc(N7CC8CCC(C7)N8)c7cc(Cl)c(-c8cc(O)cc9ccccc89)c(F)c7n6)CCCN45)CC3)no2)C(C)C)cc1` (relative stereo) [Compound 330, [(3R,8S)-8-[[6-chloro-4-(3,8-diazabicyclo[3.2.1]octan-3-yl)-8-fluoro-7-(3-hydroxy-1-naphthyl)quinazolin-2-yl]oxymethyl]-1,2,3,5,6,7-hexahydropyrrolizin-3-yl]methyl 4-[5-[(1R)-1-[(2S,4R)-4-hydroxy-2-[[(1S)-1-[4-(4-methylthiazol-5-yl)phenyl]ethyl]carbamoyl]pyrrolidine-1-carbonyl]-2-methyl-propyl]isoxazol-3-yl]piperazine-1-carboxylate] the same measures were 60 to 80% and < 600 nM.
For `CCc1cccc2cccc(-c3ncc4c(N5CCCCCC5)nc(OC[C@]56CCCN5[C@H](COC(=O)N5CCN(c7cc([C@H](C(=O)N8C[C@H](O)C[C@H]8C(=O)N[C@@H](C)c8ccc(-c9scnc9C)cc8)C(C)C)on7)CC5)CC6)nc4c3F)c12` (relative stereo) [Compound 331], the DC50 was > 3000 nM.

Values taken from patent US20250206732A1, “COMPOUNDS AND METHODS FOR THE TARGETED DEGRADATION OF KRAS” (Arvinas Operations, Inc., priority 2022, published 2025).
